≈ marks a conversion by molar mass, not a printed value. Where two headings read alike, the source gives them in different places.
Legend:
Assay in all cases: In vitro antibacterial activity, microtitration dilution method (MIC)
Format in all cases: cell-based
[1] = system: Streptococcus faecalis MGH-2; conditions: Enterococcus faecalis
Description: (§1) Agents & Chemoth., 6, 124 (1974), which is incorporated herein by reference.

Proteus rettgeri M 1771 = conditions: Providencia rettgeri
Description: as §1

[2] = system: Streptococcus pneumoniae SV-1; conditions: SV1; Streptococcus pneumoniae SV-1, microtitration dilution; read-out: Minimal Inhibitory Concentration MIC
Description: as §1

[3] = system: Klebsiella pneumoniae MGH-2
Description: as §1

[4] = system: Pseudomonas aeruginosa UI-18; conditions: UI18; Pseudomonas aeruginosa UI-18, microtitration dilution; read-out: Minimal Inhibitory Concentration MIC
Description: as §1

[5] = system: Staphylococcus aureus UC-76
Description: as §1

[6] = system: Staphylococcus aureus H 228; conditions: H228; Staphylococcus aureus H 228, microtitration dilution; read-out: Minimal Inhibitory Concentration MIC
Description: (§2) The compounds of the invention display antibacterial activity when tested by the microtitration dilution method as described in Heifetz, et al, Antimicr. Agents & Chemoth., 6, 124 (1974), which is incorporated herein by reference. By use of this method, the followed minimum inhibitory concentration values (MICs in μg/mL) were obtained for representative compounds of the invention.

[7] = system: Enterobacter cloacae MA 2646
Description: as §2

Escherichia coli Vogel = conditions: Escherichia coli Vogel, microtitration dilution; read-out: Minimal Inhibitory Concentration MIC
Description: as §2

[8] = system: Streptococcus pyogenes C-203; conditions: C203; Streptococcus pyogenes C-203, microtitration dilution; read-out: Minimal Inhibitory Concentration MIC
Description: as §2

[9] = MGH2, Streptococcus faecalis MGH-2, microtitration dilution, read-out: Minimal Inhibitory Concentration MIC
[10] = M1771, Proteus rettgeri M 1771, microtitration dilution, read-out: Minimal Inhibitory Concentration MIC
[11] = MGH2, Klebsiella pneumoniae MGH-2, microtitration dilution, read-out: Minimal Inhibitory Concentration MIC
[12] = MA2646, Enterobacter cloacae MA 2646, microtitration dilution, read-out: Minimal Inhibitory Concentration MIC
[13] = Klebsiella pneumoniae, MGH2, read-out: Minimal Inhibitory Concentration MIC
[14] = UC76, Staphylococcus aureus UC-76, microtitration dilution, read-out: Minimal Inhibitory Concentration MIC

Structure (SMILES)	MIC [1, 9] [µg/mL]	MIC (Proteus rettgeri M 1771; [10]) [µg/mL]	MIC [2] [µg/mL]	MIC [3, 11] [µg/mL]	MIC [4] [µg/mL]	MIC ([5]; Staphylococcus aureus, UC76, read-out: Minimal Inhibitory Concentration MIC) [µg/mL]	MIC [6] [µg/mL]	MIC [7, 12] [µg/mL]	MIC (Escherichia coli Vogel) [µg/mL]	MIC [8] [µg/mL]	MIC [3, 13] [µg/mL]	MIC [5, 14] [µg/mL]	MIC ([1]; MGH2, read-out: Minimal Inhibitory Concentration MIC) [µg/mL]	MIC ([7]; Enterobacter cloacae, MA2646, read-out: Minimal Inhibitory Concentration MIC) [µg/mL]	MIC (Proteus rettgeri M 1771; M1771, read-out: Minimal Inhibitory Concentration MIC) [µg/mL]
Cc1c(F)c(N2CC(C)NC(C)C2)c(F)c2c1c(=O)c(C(=O)O)cn2-c1ccc(F)cc1F (centres unmarked) [Ex. 14a, 6,8-Difluoro-1-(2,4-difluorophenyl)-1,4-dihydro-5-methyl-7-(3,5-dimethyl-1-piperazinyl)-4-oxo-3-quinolinecarboxylic acid]	1.6 (≈ 3.45 µM)	3.1 (≈ 6.69 µM)	0.8 (≈ 1.73 µM)	1.6 (≈ 3.45 µM)	3.1 (≈ 6.69 µM)	0.2 (≈ 0.432 µM)	0.4 (≈ 0.863 µM)	0.4 (≈ 0.863 µM)	0.4 (≈ 0.863 µM)	1.6 (≈ 3.45 µM)	–	–	–	–	–
Cc1c(F)c(N2CCC(N)C2)c(F)c2c1c(=O)c(C(=O)O)cn2-c1ccc(F)cc1F (centres unmarked) [Ex. 15, 7(3-Amino-1-pyrrolidinyl)-6,8-difluoro-1-(2,4-difluorophenyl)-1,4-dihydro-5-methyl-4-oxo-3-quinolinecarboxylic acid]	0.2 (≈ 0.459 µM)	0.2 (≈ 0.459 µM)	0.1 (≈ 0.23 µM)	–	0.8 (≈ 1.84 µM)	–	0.05 (≈ 0.115 µM)	0.025 (≈ 0.0574 µM)	0.025 (≈ 0.0574 µM)	0.1 (≈ 0.23 µM)	0.1 (≈ 0.23 µM)	0.025 (≈ 0.0574 µM)	–	–	–
Cc1c(F)c(N2CCNCC2)cc2c1c(=O)c(C(=O)O)cn2-c1ccc(F)cc1F [Ex. 17, 6-Fluoro-1-(2,4-difluorophenyl)-1,4-dihydro-5-methyl-4-oxo-7-(1-piperazinyl)-3-quinolinecarboxylic acid]	0.2 (≈ 0.479 µM)	0.2 (≈ 0.479 µM)	0.05 (≈ 0.12 µM)	0.1 (≈ 0.24 µM)	0.8 (≈ 1.92 µM)	–	0.1 (≈ 0.24 µM)	0.05 (≈ 0.12 µM)	0.05 (≈ 0.12 µM)	0.1 (≈ 0.24 µM)	–	0.025 (≈ 0.0599 µM)	–	–	–
Cc1c(F)c(N2CCNC(C)C2)cc2c1c(=O)c(C(=O)O)cn2-c1ccc(F)cc1F (centres unmarked) [Ex. 17a, 6-Fluoro-1-(2,4-difluorophenyl)-1,4-dihydro-5-methyl-7-(3-methyl-1-piperazinyl)-4-oxo-3-quinolinecarboxylic acid]	0.4 (≈ 0.927 µM)	0.8 (≈ 1.85 µM)	0.05 (≈ 0.116 µM)	0.4 (≈ 0.927 µM)	1.6 (≈ 3.71 µM)	–	0.1 (≈ 0.232 µM)	0.2 (≈ 0.464 µM)	0.1 (≈ 0.232 µM)	0.1 (≈ 0.232 µM)	–	0.025 (≈ 0.0579 µM)	–	–	–
Cc1c(F)c(N2CC(C)NC(C)C2)cc2c1c(=O)c(C(=O)O)cn2-c1ccc(F)cc1F (centres unmarked) [Ex. 17b, 6-Fluoro-1-(2,4-difluorophenyl)-1,4-dihydro-5-methyl-7-(3,5-dimethyl-1-piperazinyl)-4-oxo-3-quinolinecarboxylic acid]	–	1.6 (≈ 3.59 µM)	0.05 (≈ 0.112 µM)	0.8 (≈ 1.8 µM)	1.6 (≈ 3.59 µM)	–	0.1 (≈ 0.224 µM)	0.4 (≈ 0.898 µM)	0.2 (≈ 0.449 µM)	0.1 (≈ 0.224 µM)	–	0.05 (≈ 0.112 µM)	0.8 (≈ 1.8 µM)	–	–
Cc1c(F)c(N2CCC(N)C2)cc2c1c(=O)c(C(=O)O)cn2-c1ccc(F)cc1F (centres unmarked) [Ex. 17c, 7-(3-Amino-1-pyrrolidinyl)-6-fluoro-1-(2,4-difluorophenyl)-1,4-dihydro-5-methyl-4-oxo-3-quinolinecarboxylic acid]	0.1 (≈ 0.24 µM)	0.2 (≈ 0.479 µM)	0.025 (≈ 0.0599 µM)	–	0.8 (≈ 1.92 µM)	–	0.05 (≈ 0.12 µM)	–	0.05 (≈ 0.12 µM)	0.05 (≈ 0.12 µM)	0.1 (≈ 0.24 µM)	0.013 (≈ 0.0311 µM)	–	0.05 (≈ 0.12 µM)	–
Cc1c(F)c(N2CCC(C)(CN)C2)cc2c1c(=O)c(C(=O)O)cn2-c1ccc(F)cc1F (centres unmarked) [Ex. 17e, 7-[3-(Aminomethyl)-3-methyl-1-pyrrolidinyl]-6-fluoro-1(2,4-difluorophenyl)-1,4-dihydro-5-methyl-4-oxo-3-quinolinecarboxylic acid]	0.2 (≈ 0.449 µM)	0.8 (≈ 1.8 µM)	0.013 (≈ 0.0292 µM)	0.8 (≈ 1.8 µM)	3.1 (≈ 6.96 µM)	–	0.05 (≈ 0.112 µM)	0.4 (≈ 0.898 µM)	0.4 (≈ 0.898 µM)	0.025 (≈ 0.0561 µM)	–	0.013 (≈ 0.0292 µM)	–	–	–
Cc1c(F)c(N2CCC(N)C2)nc2c1c(=O)c(C(=O)O)cn2C1CC1 (centres unmarked) [Ex. 18, 7-(3-Amino-1-pyrrolidinyl)-1-cyclopropyl-6-fluoro-1,4-dihydro-5-methyl-4-oxo-1,8-naphthyridine-3-carboxylic acid]	0.05 (≈ 0.144 µM)	–	0.013 (≈ 0.0375 µM)	0.025 (≈ 0.0722 µM)	0.2 (≈ 0.577 µM)	–	0.25 (≈ 0.722 µM)	0.013 (≈ 0.0375 µM)	0.013 (≈ 0.0375 µM)	0.025 (≈ 0.0722 µM)	–	0.013 (≈ 0.0375 µM)	–	–	0.1 (≈ 0.289 µM)

From patent US5585491A, “Antibacterial agents” (Otsuka Pharmaceutical Co., Ltd., priority 1995, dated 1996)
